Here are results for 29 molecules from patent publication US12441703B2, “Carboxamides as modulators of sodium channels” (VERTEX PHARMACEUTICALS INCORPORATED, priority 2019, dated 2025).

Where only a bound is given, the exact number is not on record here.

Broadly, the IC50 is the midpoint of a concentration-inhibition curve.

The target of this assay is human NaV 1.8 (Homo sapiens, UniProt Q9Y5Y9). In words: E-VIPR assay for detecting and measuring NaV inhibition properties. Type of assay: cell-based. The following applies: E-VIPR assay conducted in the presence of human serum; HEK cells expressing truncated human NaV 1.8; read-out: IC50. In outline: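 Membrane-potential (coumarin/oxonol) readout after 10 s of 10 Hz biphasic electrical stimulation on E-VIPR. Compounds: 11-point 3-fold dilutions, […], 0.625% DMSO, 30 min at room temperature, human serum optional. Cells: HEK expressing truncated human NaV1.8 co-transduced with KIR2.1.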
Chain of human NaV 1.8 (Q9Y5Y9 whole entry, looked up, the tested form may be a part): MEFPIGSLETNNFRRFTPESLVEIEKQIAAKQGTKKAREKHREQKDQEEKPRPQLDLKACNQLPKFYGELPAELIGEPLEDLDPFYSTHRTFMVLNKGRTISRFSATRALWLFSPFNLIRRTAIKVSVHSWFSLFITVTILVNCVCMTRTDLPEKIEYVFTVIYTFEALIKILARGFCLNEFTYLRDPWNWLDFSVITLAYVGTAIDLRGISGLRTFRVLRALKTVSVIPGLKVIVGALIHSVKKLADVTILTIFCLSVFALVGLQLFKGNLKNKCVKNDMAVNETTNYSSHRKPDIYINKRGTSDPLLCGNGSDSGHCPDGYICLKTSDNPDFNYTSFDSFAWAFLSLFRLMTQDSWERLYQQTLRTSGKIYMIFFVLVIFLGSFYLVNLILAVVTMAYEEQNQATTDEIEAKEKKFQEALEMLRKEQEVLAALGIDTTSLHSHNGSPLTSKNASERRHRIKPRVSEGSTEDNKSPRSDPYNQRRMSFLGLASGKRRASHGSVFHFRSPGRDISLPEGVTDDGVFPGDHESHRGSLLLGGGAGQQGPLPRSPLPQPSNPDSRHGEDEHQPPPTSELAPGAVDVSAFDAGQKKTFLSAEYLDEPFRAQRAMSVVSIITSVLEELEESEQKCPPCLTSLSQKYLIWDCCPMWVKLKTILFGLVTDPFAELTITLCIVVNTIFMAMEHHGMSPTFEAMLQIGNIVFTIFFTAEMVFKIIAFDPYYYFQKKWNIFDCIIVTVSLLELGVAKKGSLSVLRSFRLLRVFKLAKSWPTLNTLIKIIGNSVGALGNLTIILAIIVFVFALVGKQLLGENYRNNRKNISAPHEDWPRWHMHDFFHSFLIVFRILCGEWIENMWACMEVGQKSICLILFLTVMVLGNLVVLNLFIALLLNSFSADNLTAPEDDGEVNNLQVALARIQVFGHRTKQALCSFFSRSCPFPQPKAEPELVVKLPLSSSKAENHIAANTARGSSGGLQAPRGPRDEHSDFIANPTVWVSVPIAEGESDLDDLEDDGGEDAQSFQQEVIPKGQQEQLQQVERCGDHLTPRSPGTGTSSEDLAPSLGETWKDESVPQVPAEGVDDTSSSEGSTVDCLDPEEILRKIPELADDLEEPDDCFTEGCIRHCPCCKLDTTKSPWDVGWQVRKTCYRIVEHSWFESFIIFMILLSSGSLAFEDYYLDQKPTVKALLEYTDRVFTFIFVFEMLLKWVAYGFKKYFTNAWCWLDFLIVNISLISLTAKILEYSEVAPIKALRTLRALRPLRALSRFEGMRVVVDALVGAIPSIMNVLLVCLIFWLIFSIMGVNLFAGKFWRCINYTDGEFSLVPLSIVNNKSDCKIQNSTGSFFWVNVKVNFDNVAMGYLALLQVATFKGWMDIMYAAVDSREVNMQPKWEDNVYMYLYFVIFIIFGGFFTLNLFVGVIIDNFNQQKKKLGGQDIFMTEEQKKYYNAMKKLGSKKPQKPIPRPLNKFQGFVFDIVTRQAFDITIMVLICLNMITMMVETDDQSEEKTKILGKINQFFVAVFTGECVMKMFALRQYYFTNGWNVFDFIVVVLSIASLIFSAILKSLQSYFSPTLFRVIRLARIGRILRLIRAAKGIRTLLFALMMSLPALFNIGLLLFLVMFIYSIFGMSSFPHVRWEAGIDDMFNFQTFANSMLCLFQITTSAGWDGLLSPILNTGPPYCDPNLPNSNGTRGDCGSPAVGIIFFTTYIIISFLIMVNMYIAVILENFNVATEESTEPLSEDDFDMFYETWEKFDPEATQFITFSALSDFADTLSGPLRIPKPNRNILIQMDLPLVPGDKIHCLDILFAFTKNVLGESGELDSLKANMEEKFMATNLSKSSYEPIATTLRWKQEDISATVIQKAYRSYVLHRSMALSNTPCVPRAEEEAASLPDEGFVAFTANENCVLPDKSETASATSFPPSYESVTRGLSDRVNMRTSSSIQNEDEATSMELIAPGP
Turning to `COc1c(Oc2cc3c(c(C)c2C(=O)Nc2ccnc(C(N)=O)c2)OC(F)(F)O3)ccc(OC(F)(F)F)c1F` [Compound 327, 4-[[2,2-difluoro-6-[3-fluoro-2-methoxy-4-(trifluoromethoxy)phenoxy]-4-methyl-1,3-benzodioxole-5-carbonyl]amino]pyridine-2-carboxamide], the 50% inhibitory concentration (IC50) worked out at 8.3 nM.

Take `COc1c(Oc2ccc(C(F)(F)F)c(F)c2C(=O)Nc2cc(C(N)=O)ncn2)ccc(OC(F)(F)F)c1F` [Compound 329, 6-[[2-fluoro-6-[3-fluoro-2-methoxy-4-(trifluoromethoxy)phenoxy]-3-(trifluoromethyl)benzoyl]amino]pyrimidine-4-carboxamide]: the concentration for half-maximal inhibition (IC50) was found to be 12.7 nM.

As for `COc1c(Oc2ccc(C(F)(F)F)c(F)c2C(=O)Nc2cc(C(N)=O)ccn2)ccc(OC(F)(F)F)c1F` [Compound 330, 2-[[2-fluoro-6-[3-fluoro-2-methoxy-4-(trifluoromethoxy)phenoxy]-3-(trifluoromethyl)benzoyl]amino]pyridine-4-carboxamide], the IC50 came to 29 nM.

For `COc1c(Oc2ccc(C(F)(F)F)c(F)c2C(=O)Nc2cnc(C(N)=O)nc2)ccc(OC(F)(F)F)c1F` [Compound 331, 5-[[2-fluoro-6-[3-fluoro-2-methoxy-4-(trifluoromethoxy)phenoxy]-3-(trifluoromethyl)benzoyl]amino]pyrimidine-2-carboxamide], the IC50 stood at 4.6 nM.

For the molecule `COc1c(Oc2cnc(C(F)(F)F)c(F)c2C(=O)Nc2ccnc(C(N)=O)c2)ccc(OC(F)(F)F)c1F` [Compound 332, N-(2-carbamoyl-4-pyridyl)-3-fluoro-5-[3-fluoro-2-methoxy-4-(trifluoromethoxy)phenoxy]-2-(trifluoromethyl)pyridine-4-carboxamide], the half-maximal inhibitory concentration (IC50) was determined as 2.7 nM.

As for `COc1c(Oc2cnc(C(F)(F)F)c(OC)c2C(=O)Nc2ccnc(C(N)=O)c2)ccc(OC(F)(F)F)c1F` [Compound 333, N-(2-carbamoyl-4-pyridyl)-5-[3-fluoro-2-methoxy-4-(trifluoromethoxy)phenoxy]-3-methoxy-2-(trifluoromethyl)pyridine-4-carboxamide], the IC50 is 4.9 nM.

`COc1c(Oc2cnc(C(F)(F)F)c(OC)c2C(=O)Nc2cc(C(N)=O)ncc2C)ccc(OC(F)(F)F)c1F` [Compound 334, N-(2-carbamoyl-5-methyl-4-pyridyl)-5-[3-fluoro-2-methoxy-4-(trifluoromethoxy)phenoxy]-3-methoxy-2-(trifluoromethyl)pyridine-4-carboxamide]: the IC50 amounted to 7 nM.

`COc1c(Oc2cnc(C(F)(F)F)c(C)c2C(=O)Nc2cnc(C(N)=O)nc2)ccc(OC(F)(F)F)c1F` [Compound 335, 5-[[5-[3-fluoro-2-methoxy-4-(trifluoromethoxy)phenoxy]-3-methyl-2-(trifluoromethyl)pyridine-4-carbonyl]amino]pyrimidine-2-carboxamide]: the IC50 was determined as 15.5 nM.

As for `COc1c(Oc2cnc(C(F)(F)F)c(C)c2C(=O)Nc2cc(C(N)=O)ncc2C)ccc(OC(F)(F)F)c1F` [Compound 336, N-(2-carbamoyl-5-methyl-4-pyridyl)-5-[3-fluoro-2-methoxy-4-(trifluoromethoxy)phenoxy]-3-methyl-2-(trifluoromethyl)pyridine-4-carboxamide], the half-inhibitory concentration (IC50) was found to be 5.6 nM.

Consider `COc1c(Oc2cnc(C(F)(F)F)c(C)c2C(=O)Nc2ccc(C(N)=O)nc2)ccc(OC(F)(F)F)c1F` [Compound 337, N-(6-carbamoyl-3-pyridyl)-5-[3-fluoro-2-methoxy-4-(trifluoromethoxy)phenoxy]-3-methyl-2-(trifluoromethyl)pyridine-4-carboxamide], for which the IC50 was determined as 20.5 nM.

Take `Cc1c(Oc2ccc(C(F)(F)F)c(F)c2C(=O)Nc2ccnc(C(N)=O)c2)ccc(F)c1Cl` [Compound 338, 4-[[6-(3-chloro-4-fluoro-2-methyl-phenoxy)-2-fluoro-3-(trifluoromethyl)benzoyl]amino]pyridine-2-carboxamide]: the IC50 stood at 47 nM.

Take `NC(=O)c1cc(NC(=O)c2c(Oc3ccc(F)c(F)c3Cl)ccc(C(F)(F)F)c2F)ccn1` [Compound 339, 4-[[6-(2-chloro-3,4-difluoro-phenoxy)-2-fluoro-3-(trifluoromethyl)benzoyl]amino]pyridine-2-carboxamide]: the IC50 is 27 nM.

For the molecule `NC(=O)c1cc(NC(=O)c2c(Oc3c(F)ccc(F)c3C3CC3)ccc(C(F)(F)F)c2F)ccn1` [Compound 340, 4-[[6-(2-cyclopropyl-3,6-difluoro-phenoxy)-2-fluoro-3-(trifluoromethyl)benzoyl]amino]pyridine-2-carboxamide], the IC50 is over 3000 nM.

Take `COc1cc(C(F)F)ccc1Oc1ccc(C(F)(F)F)c(F)c1C(=O)Nc1ccnc(C(N)=O)c1` [Compound 341, 4-[[6-[4-(difluoromethyl)-2-methoxy-phenoxy]-2-fluoro-3-(trifluoromethyl)benzoyl]amino]pyridine-2-carboxamide]: the IC50 was determined as 330 nM.

In the case of `COc1c(Oc2ccc(C(F)(F)F)c(F)c2C(=O)Nc2ccnc(C(N)=O)c2)ccc(OC(F)F)c1F` [Compound 343, 4-[[6-[4-(difluoromethoxy)-3-fluoro-2-methoxy-phenoxy]-2-fluoro-3-(trifluoromethyl)benzoyl]amino]pyridine-2-carboxamide], the half-maximal inhibitory concentration (IC50) is 4.8 nM.

As for `CCc1c(Oc2ccc(C(F)(F)F)c(F)c2C(=O)Nc2ccnc(C(N)=O)c2)ccc(OC(F)(F)F)c1F` [Compound 344, 4-[[6-[2-ethyl-3-fluoro-4-(trifluoromethoxy)phenoxy]-2-fluoro-3-(trifluoromethyl)benzoyl]amino]pyridine-2-carboxamide], the half-inhibitory concentration (IC50) was determined as 4.7 nM.

Consider `NC(=O)c1cc(NC(=O)c2c(Oc3ccc(OC(F)(F)F)c(F)c3C3CC3)ccc(C(F)(F)F)c2F)ccn1` [Compound 345, 4-[[6-[2-cyclopropyl-3-fluoro-4-(trifluoromethoxy)phenoxy]-2-fluoro-3-(trifluoromethyl)benzoyl]amino]pyridine-2-carboxamide], for which the 50% inhibitory concentration (IC50) was 2.5 nM.

Consider `CCOc1cc(OC(F)(F)F)ccc1Oc1ccc(C(F)(F)F)c(F)c1C(=O)Nc1ccnc(C(N)=O)c1` [Compound 346, 4-[[6-[2-ethoxy-4-(trifluoromethoxy)phenoxy]-2-fluoro-3-(trifluoromethyl)benzoyl]amino]pyridine-2-carboxamide], for which the IC50 worked out at 5.8 nM.

In the case of `CCOc1cc(OC(F)(F)F)ccc1Oc1cc(OC)c(C(F)(F)F)c(F)c1C(=O)Nc1ccnc(C(N)=O)c1` [Compound 347, 4-[[6-[2-ethoxy-4-(trifluoromethoxy)phenoxy]-2-fluoro-4-methoxy-3-(trifluoromethyl)benzoyl]amino]pyridine-2-carboxamide], the 50% inhibitory concentration (IC50) was determined as 3.1 nM.

Turning to `COc1cc(Oc2ccc(F)c(F)c2C)c(C(=O)Nc2ccnc(C(N)=O)c2)c(F)c1C(F)(F)F` [Compound 348, 4-[[6-(3,4-difluoro-2-methyl-phenoxy)-2-fluoro-4-methoxy-3-(trifluoromethyl)benzoyl]amino]pyridine-2-carboxamide], the 50% inhibitory concentration (IC50) is 20 nM.

On to `CC(C)(C)c1cc(Cc2ccccc2)c(C(=O)Nc2ccnc(C(N)=O)c2)cn1` [Compound 349, 4-benzyl-6-tert-butyl-N-(2-carbamoyl-4-pyridyl)pyridine-3-carboxamide], for which the IC50 was over 3000 nM.

With `CC(C)(C)c1cc(Cc2ccc(F)c(F)c2)c(C(=O)Nc2ccnc(C(N)=O)c2)cn1` [Compound 350, 6-tert-butyl-N-(2-carbamoyl-4-pyridyl)-4-[(3,4-difluorophenyl)methyl]pyridine-3-carboxamide], the IC50 was over 3000 nM.

Turning to `COc1cc(F)ccc1Oc1cc(C(F)(F)F)nc(C)c1C(=O)Nc1ccnc(C(N)=O)c1` [Compound 351, N-(2-carbamoyl-4-pyridyl)-4-(4-fluoro-2-methoxy-phenoxy)-2-methyl-6-(trifluoromethyl)pyridine-3-carboxamide], the IC50 is 410 nM.

`COc1cc(OC(F)(F)F)ccc1Oc1cc(OC)c(C(F)(F)F)c(F)c1C(=O)Nc1ccnc(C(N)=O)c1` [Compound 352, 4-[[2-fluoro-4-methoxy-6-[2-methoxy-4-(trifluoromethoxy)phenoxy]-3-(trifluoromethyl)benzoyl]amino]pyridine-2-carboxamide]: the IC50 was 1.8 nM.

For the molecule `COc1cc(OC(F)(F)F)ccc1Oc1cc(OC)c(C(F)(F)F)c(F)c1C(=O)Nc1ccc(C(N)=O)nc1` [Compound 353, 5-[[2-fluoro-4-methoxy-6-[2-methoxy-4-(trifluoromethoxy)phenoxy]-3-(trifluoromethyl)benzoyl]amino]pyridine-2-carboxamide], the IC50 was 17.4 nM.

For `COc1cc(OC(F)(F)F)ccc1Oc1ccc(C(F)(F)F)c(F)c1C(=O)Nc1cc(C(N)=O)[n+]([O-])cc1C` [Compound 354, 4-[[2-fluoro-6-[2-methoxy-4-(trifluoromethoxy)phenoxy]-3-(trifluoromethyl)benzoyl]amino]-5-methyl-1-oxido-pyridin-1-ium-2-carboxamide], the concentration for half-maximal inhibition (IC50) amounted to 30 nM.

On to `COc1cc(OC(F)(F)F)ccc1Oc1ccc(C(F)(F)F)c(F)c1C(=O)Nc1cc(C(N)=O)ncn1` [Compound 355, 6-[[2-fluoro-6-[2-methoxy-4-(trifluoromethoxy)phenoxy]-3-(trifluoromethyl)benzoyl]amino]pyrimidine-4-carboxamide], for which the IC50 is 150 nM.

With `COc1cc(OC(F)(F)F)ccc1Oc1ccc(C(F)(F)F)c(F)c1C(=O)Nc1cnnc(C(N)=O)c1` [Compound 356, 5-[[2-fluoro-6-[2-methoxy-4-(trifluoromethoxy)phenoxy]-3-(trifluoromethyl)benzoyl]amino]pyridazine-3-carboxamide], the IC50 amounted to 3.3 nM.

`COc1cc(OC(F)(F)F)ccc1Oc1ccc(C(F)(F)F)c(F)c1C(=O)Nc1cnc(C(N)=O)nc1` [Compound 357, 5-[[2-fluoro-6-[2-methoxy-4-(trifluoromethoxy)phenoxy]-3-(trifluoromethyl)benzoyl]amino]pyrimidine-2-carboxamide]: the half-maximal inhibitory concentration (IC50) was 15 nM.
